We go through one compound from patent US9814720B2, “Compositions and methods of inhibiting IL-17 expression of neutrophils” (priority 2014, dated 2017).

One test has as its system RORγt. In words: RORγt nuclear translocation in IL-6/23-stimulated murine neutrophils (confocal imaging). It counts as cell-based, C57BL/6 mice. The note with it: IL-6+IL-23 stimulated, inhibitor 20 μM, FIG. 4D. The text has this: Total bone marrow-derived cells were isolated from mouse femurs and tibias by flushing with RPMI and an 18-gauge needle. Erythrocytes were lysed with 1× lysis buffer (eBioscience), and bone marrow cells were separated on a Percoll (Fisher) gradient by density centrifugation (52%, 69%, and 78%). Cells at the 69-78% interface were harvested, and neutrophil purity (>98%) confirmed by flow cytometry and Wright-Giemsa staining. Murine or human neutrophils were suspended at a density of 10^6 cells/ml and incubated with […] of recombinant mouse or human IL-6 and 2 μg/ml IL-23 in RPMI, and the cells were maintained for 1-3 h at 37° C. in 5% CO2. Various inhibitors were used for assessing STAT3 activation. […] For the determination of RORγt-dependent signaling, SR1001 (20 μM; Sigma) was used, which inhibits RORγt binding to the IL-17 promoter site. All inhibitors were added to neutrophils 2 h prior to recombinant IL-6 and IL-23 stimulation. Corneas were dissected and incubated for 1 h at 37° C. in collaganese (80 U/ml) (C0130; Sigma-Aldrich), and washed in FACS buffer (PBS+1% FBS+0.5% Sodium azide). Ten corneas were pooled and analyzed by intracellular flow cytometry. Conversely, bone marrow cells or neutrophils were collected as described above and washed in FACS buffer. […] Cells were analyzed using a C6 Accuri flow cytometer (BD). […]

The next test relates to IL-17RC. In words: IL-17RC gene expression by qPCR in IL-6/23-stimulated human neutrophils. As to conditions: IL-6/23 1 h, FIG. 6B. It counts as cell-based. The method, then:
Neutrophils were isolated from peripheral blood of healthy donors. Peripheral blood was incubated in 3% Dextran, and neutrophils isolated by Ficoll gradient centrifugation (Fisher Scientific), with neutrophil purity determined by staining with Wright-Giemsa.
Murine or human neutrophils were suspended at a density of 10^6 cells/ml and incubated with […] of recombinant mouse or human IL-6 and 2 μg/ml IL-23 in RPMI, and the cells were maintained for 1-3 h at 37° C. in 5% CO2. Various inhibitors were used for assessing STAT3 activation. For STAT3, neutrophils were treated with either the STAT3-SH2 inhibitor, Stattic (20 μM) obtained from Tocris, or the JAK-1, 2 inhibitor, INC424, (aka Ruxolitinib; 20 μM (Selleck BioChem)). For the determination of RORγt-dependent signaling, SR1001 (20 μM; Sigma) was used, which inhibits RORγt binding to the IL-17 promoter site. All inhibitors were added to neutrophils 2 h prior to recombinant IL-6 and IL-23 stimulation.
Neutrophil and corneal cell RNA was extracted using the RNeasy mini kit according to the manufacturer's directions (Qiagen, Valencia, Calif.). The quality of RNA was checked by spectrophotometry, and only samples with a 260/280 ratio of 2.0 were used to generate cDNA. The SuperScript First Strand synthesis system (Invitrogen) was used to generate cDNA according to the manufacturer's directions.
The SYBR green system (Applied Biosystems, Carlsbad, Calif.) was utilized for quantitative PCR (qPCR) using ABI Biosystems. PCR products were then run on a 1% agarose gel, and visualized using ethidium bromide. PCR products were compared to Actb (encoding the β-actin gene) or GAPDH as the controls for gel loading.
(In general: In qPCR the cycle at which signal appears reflects the starting amount.)

On to `O=[N+]([O-])c1ccc2c(c1)S(=O)(=O)C=C2` [Stattic], for which, in the test on RORγt, the “RORγt localisation (cytoplasm vs nucleus)” value is “only detected in the cytoplasm”. In addition, in the test with IL-17RC, the IL-17RC expression entry was “did not inhibit”.
